From article PMC7138139 (Molecular and cellular neurosciences, 2020)

What was measured:
[1] = molecular target: T1, Olfr774 (Mus musculus, UniProt Q7TRI5); assay: Glosensor cAMP luminescence dose-response, Hana3A cells; assay type: cell-based; settings: agonist
T1 sequence (Q7TRI5 1-312): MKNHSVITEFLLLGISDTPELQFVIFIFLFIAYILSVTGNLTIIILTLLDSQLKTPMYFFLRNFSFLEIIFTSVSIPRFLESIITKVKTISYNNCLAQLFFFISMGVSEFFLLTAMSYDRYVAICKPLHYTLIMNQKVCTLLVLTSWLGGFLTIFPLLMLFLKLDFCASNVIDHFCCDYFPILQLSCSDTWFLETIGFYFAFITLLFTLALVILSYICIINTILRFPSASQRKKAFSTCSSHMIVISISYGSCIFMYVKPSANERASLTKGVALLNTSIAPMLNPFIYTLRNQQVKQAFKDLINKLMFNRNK

[2] = molecular target: T2, Olfr937 (Mus musculus, UniProt Q9EQB4); assay: as above; assay type: cell-based; settings: antagonist of whiskey lactone response; 316 uM
T2 sequence (Q9EQB4 1-311): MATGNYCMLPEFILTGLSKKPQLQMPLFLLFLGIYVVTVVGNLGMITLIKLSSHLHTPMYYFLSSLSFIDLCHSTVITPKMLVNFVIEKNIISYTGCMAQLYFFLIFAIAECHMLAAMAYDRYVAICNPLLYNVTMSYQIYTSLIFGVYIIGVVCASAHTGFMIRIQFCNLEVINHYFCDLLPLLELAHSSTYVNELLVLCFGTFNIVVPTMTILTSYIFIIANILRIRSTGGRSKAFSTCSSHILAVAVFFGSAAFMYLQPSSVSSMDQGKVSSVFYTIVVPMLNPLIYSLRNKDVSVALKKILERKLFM

| Structure (SMILES) | Glosensor cAMP luminescence dose-response, Hana3A cells [1] | Glosensor cAMP luminescence dose-response, Hana3A cells [2] |
| --- | --- | --- |
| CCCCCCCCCCC=O [undecanal] | In vitro testing confirmed that Olfr774 responded to undecanal but not to bourgeonal | – |
| CC(C)(C)c1ccc(CCC=O)cc1 [bourgeonal, 3-(4-tert-butylphenyl)propanal] | – | bourgeonal and lyral also suppressed Olfr937 responses to whiskey lactone, with bourgeonal being more effective |
